Assay results from patent US6774142B2, “Inhibition by 3-deoxyflavonoids of T-lymphocyte activation and therapies related thereto” (priority 2001, dated 2004).

What was measured:
[1] = molecular target: Kv1.3 channel (Homo sapiens, UniProt P22001); assay: Inhibition of the Kv1.3 channel, patch clamp method; format: cell-based
Description: Furthermore, the invention deals with ion channels that constitute a set of molecular targets through which these 3-deoxyflavonoids exert their biological effects. The flavonoid compounds of this invention can lower and stabilize blood glucose levels in Type-I and Type-II diabetics, and can also ameliorate symptoms of lupus erythematosus, an autoimmune disease affecting several organs. Type-I diabetes is an autoimmune disease in which autoreactive lymphocytes destroy pancreatic P-cells, while the etiology of Type-II diabetes is due to inadequate insulin production and decreased ability of insulin to affect its target end-organs. Since ion channels play a critical role in lymphocytes and in pancreatic β-cell signaling, it is most likely that at least some of the therapeutic effects of flavonoids may arise through blockade of ion channels. […] The non-toxic nature of these flavonoids in humans makes them attractive as nutraceuticals that could complement or replace existing medications and therapies. Inhibition of the Kv1.3 channel was performed utilizing the patch clamp method desctribed by […]. Biol. Chem. 276: 12249.

[2] = test system: cytotoxic T lymphocyte line CTL264; assay: CTL cytotoxicity against 264 peptide-pulsed T2 target cells (calcein release); format: cell-based; settings: for inhibition of calcein release: FIG. 3
Procedure: A cytotoxic T lymphocyte line (CTL—designated CTL264) specific for a peptide antigen (aa 264-272, referred to as the 264 peptide) derived from the tumor suppressor protein p53 was used as a […] to test if luteolin had any effect on CTL cytotoxicity against 264 peptide-pulsed T2 target cells. T2 target cells were pulsed with 264 peptide for 2 hours and labeled with Calcein-AM for 30 minutes and washed three times. Mixtures of T2 cells and CTL264 were incubated for 4 hours. 100 μL supernatants were transferred to a 96-well flat-bottom microtiter plates to read fluorescence (538 nm) to measure calcein release due to cell lysis.
The spontaneous calcein release in cytotoxic T Lymphocytes was determined by incubation of targets in RPMI-10. The maximal calcein release was determined by incubation of targets in Triton X-100. Data are reported as the mean of triplicate determinations.

[3] = test system: chronic Type I (BBWor) diabetic rats; assay: Blood glucose in chronic Type I (BBWor) diabetic rats; format: in vivo, rat; settings: for blood glucose after treatment: 6 hours; for blood glucose before treatment: time 0; for decrease in blood glucose levels: within 6 hours of a single treatment (luteolin 3 mg intragastrically; PZI insulin subcutaneous)
Procedure: The effect of Luteolin treatment in chronic Type I (BBWor) diabetic rats was examined. In this study, lean male diabetic rats were randomly assigned to 3 treatment groups (3-4 rats/group). Each group received either: (1) 3 mg dose of luteolin intragastrically; (2) a subcutaneous injection of PZI insulin (0.9-1.2 mU/day); or (3) no treatment. Blood glucose was evaluated from time 0 through 6 hours. The data was expressed as average blood glucose relative to time post treatment.

[4] = test system: chronic Type 2 diabetic rats; assay: Blood glucose in chronic Type 2 diabetic rats, 24 hr dose study; format: in vivo, rat
Procedure: Luteolin was also evaluated for its effect to reduce hyperglycemia in chronic Type 2 diabetic rats. In this study, the dose and frequency of Luteolin treatment was increased to compensate for the enhanced metabolism of the obese rat. First, a 24 hour baseline study was performed on 9 chronic Type 2 rats. […] These same rats were randomly assigned to 3 groups and given 50, 150 and 250 mg doses of Luteolin at three times during the 24 hr period (11 AM, 2 PM and 8 PM). Blood glucose analysis was evaluated every 2 hours.

[5] = test system: obese Type II (BBZDR) diabetic rats; assay: Blood glucose in Type II BBZDR rats, two weeks of treatment; format: in vivo, rat
Procedure: In this example, the dose of luteolin was standardized to 50 mg three times per day in the same group of Type II BBZDR rats from Example 5 over an extended period of treatment of two weeks. […] The data was expressed for each rat as a percentage change in blood glucose level relative to each individual pre-treatment level.

[6] = cited from earlier work
[7] = 50 mg three times per day for two weeks
[8] = fried onions, equivalent to 64 mg quercetin aglycone

Chain of Kv1.3 channel (P22001 whole entry): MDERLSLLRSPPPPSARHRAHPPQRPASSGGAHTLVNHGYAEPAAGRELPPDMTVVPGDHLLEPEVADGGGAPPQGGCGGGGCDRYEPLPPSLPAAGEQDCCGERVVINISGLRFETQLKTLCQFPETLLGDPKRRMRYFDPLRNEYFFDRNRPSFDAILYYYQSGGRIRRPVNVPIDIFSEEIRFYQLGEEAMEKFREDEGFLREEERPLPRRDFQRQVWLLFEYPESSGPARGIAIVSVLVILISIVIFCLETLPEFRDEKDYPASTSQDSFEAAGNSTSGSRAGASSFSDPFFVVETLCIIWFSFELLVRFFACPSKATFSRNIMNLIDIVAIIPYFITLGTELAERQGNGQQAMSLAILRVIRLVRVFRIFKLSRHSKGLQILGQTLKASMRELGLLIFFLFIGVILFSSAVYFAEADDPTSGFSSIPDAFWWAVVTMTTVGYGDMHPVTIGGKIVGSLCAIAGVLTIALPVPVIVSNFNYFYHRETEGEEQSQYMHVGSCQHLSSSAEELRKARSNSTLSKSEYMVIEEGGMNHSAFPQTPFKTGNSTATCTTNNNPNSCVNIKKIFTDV

For `O=c1cc(-c2ccc(O)c(O)c2)oc2cc(O)cc(O)c12` [luteolin, 3′,4′,5,7-tetrahydroxyflavone], the “block of Kv1.3 channel current vs. control” value ([1]; 20 uM concentration) was “approximately 25%”, the “block of Kv1.3 channel current vs. control” value ([1]; 100 uM concentration) was 100% and the “inhibition of CTL cytotoxicity against 264-pulsed T2 target cells” value ([2]; 4 hours incubation, FIG. 2) was “significantly inhibited”. For the same compound, the “inhibition of calcein release” value [2] was “inhibition of calcein release”, the “blood glucose after treatment” value [3] was 307 mg/dL and the “blood glucose before treatment” value [3] was 445 mg/dL. The “decrease in blood glucose levels” value [3] was 31%, the “decrease in blood glucose levels” value ([4]; 50 mg three times a day (150 mg total), within 24 hr) was 10.2% and the “drop in blood glucose” value ([4]; 150 mg three times (450 mg total), 24 hr) was 22.9%. For the same compound, the decrease in glucose ([4]; 250 mg three times (750 mg total), 24 hr) was 27.7%, the “blood glucose after treatment, one rat” value ([4]; intermediate dose, one rat, 18 hr) was 372 mg/dL and the “blood glucose before treatment, one rat” value ([4]; intermediate dose, one rat, start) was 777 mg/dL. For the same compound, the “reduction of blood glucose, one rat” value ([4]; intermediate dose, one rat, within 18 hr) was 52%, the “reduction of hyperglycemia over all doses” value ([4]; over a 24 hour period, 50-250 mg doses) was 10-28% and the “average blood glucose after treatment” value [5, 7] was 389 mg/dL. For the same compound, the “average drop in blood glucose levels” value [5, 7] was 41.1%, the “average blood glucose pre-treatment” value ([5]; before treatment) was 660 mg/dL and the “increase in blood glucose, rat #3” value ([5]; rat #3 with esophagial fistula, two weeks) was 9.3%.
For insulin [reference compound], the “blood glucose after treatment” value [3] was 112 mg/dL, the “blood glucose before treatment” value [3] was 415 mg/dL and the “decrease in blood glucose levels” value [3] was 75%.
In the case of `O=c1cc(-c2cc(O)c(O)c(O)c2)oc2cc(O)cc(O)c12` [tricetin], the “inhibition of calcein release” value [2] is reported as “inhibition of calcein release”.
In the case of `O=c1c(O)c(-c2ccc(O)c(O)c2)oc2cc(O)cc(O)c12` [quercetin], the distribution phase half-life [6, 8] is given as 3.8 h, the elimination phase half-life [6, 8] is given as 16.8 h and the “time of peak plasma levels” value [6, 8] is given as 2.9 h. The human absorption ([6]; oral) was 24%.
